Reference: publication PMC12737779, “Concurrent Assessment of Synthetic and Natural Compounds on the Proliferation of Toxoplasma gondii in In Vitro Models” (Tropical Medicine and Infectious Disease, 2025)

Key:
[1] = system: T. gondii RH GFP tachyzoites; assay: T. gondii RH GFP tachyzoite viability assay, 72 h continuous exposure; type: cell-based, Toxoplasma gondii; details: for SI: CC50/IC50, 72 h continuous exposure; for IC50: 72 h continuous exposure, GFP tachyzoite viability in Vero cells
Protocol: Approximately 10,000 tachyzoites of the T. gondii RH GFP strain were quantified using a hemocytometer and subsequently inoculated into Vero cells at full confluence per well in a 96-well plate using a medium conducive to parasite maintenance. Following our laboratory protocols and the methodologies outlined in previous studies, we routinely utilize an inoculum of 10,000 parasites for the Toxoplasma gondii RH-GFP tachyzoite viability assay, which is conducted over a 72 h duration. This parasite density ensures reliable detection of tachyzoite growth and viability while minimizing the likelihood of detachment or any degree of disruption to the host cell monolayer. Concurrently, derivatives of pyrazoline, pyrazole, and thiazolidinone nucleus compounds were introduced at […], with 1:2 dilutions commencing at 160 μM and decreasing to a minimum concentration of 1.25 μM in triplicate. The controls employed in this experiment included non-infected cells (NC), 10 μM pyrimethamine (Pyr), 1% dimethyl sulfoxide (DMSO), and infected cells without treatment (IC). Seventy-two hours post-infection, each well in the 96-well plate was examined using a 10× objective on the EVOS FL Color Imaging System with the GFP fluorescent light cube, and images were captured approximately at the center of each well. The parasites that glowed green were considered viable, and the percentage of tachyzoite viability was compared with that of the untreated parasites. Subsequently, images were recorded, contrast was adjusted, and a semiquantitative digital analysis was conducted using ImageJ v1.54d and the triangle auto-threshold method to determine the number of viable GFP fluorescent tachyzoites per image, as previously described. The percentage of viable parasites was calculated using the formula: Fluorescence of the sample with treatment URF × 100/fluorescence of the control without treatment, where URF = unit relatives of fluorescence calculated with the formula: (sample fluorescence/fluorescence in blank well) × 100.
(§1) The normalized viability percentages (Y-values) of viable host cells and viable T. gondii GFP RH tachyzoites were calculated from the mean ± standard deviation for each concentration evaluated in triplicate. The concentration values (X-axis) were subjected to logarithmic transformation to fit the data to a sigmoidal curve. The half-maximal cytotoxic concentration (CC50) was estimated as the interpolated concentration value on the X-axis corresponding to the response midway between the fitted top and bottom plateaus of the curve. Similarly, the half-maximal inhibitory concentration (IC50) was determined as the concentration at which the response was halfway between the top and the bottom plateaus. Data analysis and visualization were conducted using GraphPad Prism version 8.4.3 (GraphPad Software, San Diego, CA, USA). The selectivity index, also known as the Therapeutic Index, was calculated using the formula: SI = CC50/IC50.

[2] = system: T. gondii RH GFP tachyzoites; assay: T. gondii RH GFP tachyzoite viability following 3 h pretreatment of parasites; type: cell-based, Toxoplasma gondii; details: for Tachyzoite Pre-Treatment SI: CC50/IC50, tachyzoite pre-treatment; for IC50: read-out: Tachyzoite Pre-Treatment IC50
Protocol: Following treatment, tachyzoites were centrifuged at 712× g for 10 min, and the supernatant was discarded. Fresh medium devoid of compounds was then added to resuspend the parasites. Subsequently, 10,000 pretreated T. gondii RH GFP tachyzoites were introduced into each well of a 96-well plate containing Vero cells at 100% confluence. Seventy-two hours post-infection, each well of the 96-well plate was examined using a 10× objective on an EVOS microscope. Semiquantitative digital analysis was performed using ImageJ v1.54d, employing the triangle auto-threshold method to quantify the number of viable GFP fluorescent tachyzoites per image, as previously described.
as §1

[3] = system: T. gondii RH GFP tachyzoites; assay: T. gondii RH GFP tachyzoite viability following 24 h pretreatment of host cells; type: cell-based, Toxoplasma gondii; details: for Host Cell Pre-Treatment SI: CC50/IC50, host cell pre-treatment; for IC50: Vero cells pretreated 24 h, read 72 h post-infection, read-out: Host Cell Pre-Treatment IC50
Protocol: Subsequently, 10,000 T. gondii RH GFP tachyzoites were introduced into each well. The experimental controls included non-infected cells (NC), 10 μM pyrimethamine (Pyr), 1% dimethyl sulfoxide (DMSO), and infected cells without treatment (IC). After 24 h of host cell treatment, the medium was replaced with a compound-free medium for parasite maintenance. Seventy-two hours post-infection, each well of the 96-well plate was examined using a 10× objective on an Evos FL Auto Cell Imaging System microscope (Life Technologies, Carlsbad, CA, USA). A semiquantitative digital analysis was conducted using ImageJ v1.54d and the triangle auto-threshold method to quantify the number of viable GFP fluorescent tachyzoites per image, as previously described.
as §1

Vero cells = assay: Cytotoxicity in Vero cells by Alamar Blue assay; type: cell-based, African green monkey; details: 24 h
Protocol: (§2) The Vero cell line was seeded in 96-well plates at approximately 20,000 cells per well until approximately 100% confluence was reached. […] All compounds were evaluated at elevated concentrations, diluted in 1% DMSO, to determine the maximum concentration at which they could remain in solution for experimental purposes. It was observed that most compounds were not fully soluble at 320 µM. […] Consequently, all further experiments were initiated from this concentration. […] Four hours later, fluorescence was measured using a BioTek Synergy HTX plate reader at 530/25 nm excitation and 590/25 nm emission. […] A color change in the growth control well to pink indicated proper cell growth, and no color change in the sterile control well indicated the absence of contaminants. The normalized viability percentages (Y-values) of viable host cells and viable T. gondii GFP RH tachyzoites were calculated from the mean ± standard deviation for each concentration evaluated in triplicate. The concentration values (X-axis) were subjected to logarithmic transformation to fit the data to a sigmoidal curve. The half-maximal cytotoxic concentration (CC50) was estimated as the interpolated concentration value on the X-axis corresponding to the response midway between the fitted top and bottom plateaus of the curve. Similarly, the half-maximal inhibitory concentration (IC50) was determined as the concentration at which the response was halfway between the top and the bottom plateaus. Data analysis and visualization were conducted using GraphPad Prism version 8.4.3 (GraphPad Software, San Diego, CA, USA). The selectivity index, also known as the Therapeutic Index, was calculated using the formula: SI = CC50/IC50.

[4] = Cytotoxicity in Vero cells by Alamar Blue assay; type: cell-based, African green monkey; details: African green monkey
Protocol: as §2

[5] = tachyzoites pretreated 3 h, read 72 h post-infection
[6] = Toxoplasma gondii, tachyzoites pretreated 3 h, read 72 h post-infection

Compound | SI [1] | Tachyzoite Pre-Treatment SI [2] | IC50 [2, 5] | Host Cell Pre-Treatment SI [3] | IC50 [3] | CC50 (Vero cells) | IC50 [1] | IC50 ([1]; Toxoplasma gondii) | IC50 [2, 6] | IC50 ([3]; Toxoplasma gondii) | CC50 at 24 h [4] | IC50 ([2]; Toxoplasma gondii)
COc1cc(C2=NNC(c3ccc4c(c3)OCO4)C2)ccc1O (stereo not shown) [Compound 4] | 42.6 | 4.8 | 31.6 µM | 28.9 | 5.3 µM | 154 µM | – | – | – | – | – | –
CC(C)(C)n1nc(-c2c[nH]c3ccccc23)c(C#N)c1-c1c(Cl)cccc1Cl [Compound 5] | >11.4 | – | – | – | – | > 160 µM | 14 µM | – | – | – | – | –
COc1ccc(C=C2SC(=NN=C(C)C(C)=NO)NC2=O)cc1 [Compound 12] | 10.2 | 6.9 | 5.8 µM | 3.8 | 10.5 µM | 40.3 µM | 3.9 µM | – | – | – | – | –
CC(=N/O)/C(C)=N\N=C1\NC(=O)/C(=C/c2cc3ccccc3[nH]c2=O)S1 [Compound 15] | >16.8 | >39.7 | – | >2.9 | – | – | – | 9.5 µM | 4 µM | 54.4 µM | > 160 µM | –
COc1cc(C2=NNC(c3ccc(F)cc3)C2)ccc1O (stereo not shown) [Compound 1] | 19.6 | 5.6 | 23.4 µM | 17.5 | 7.5 µM | 132 µM | 6.7 µM | – | – | – | – | –
CCc1nc(N)nc(N)c1-c1ccc(Cl)cc1 [Pyrimethamine, pyrimethamine, reference compound] | >666 | >32.4 | – | >190 | – | – | – | 0.3 µM | – | 1 µM | > 200 µM | 6.1 µM
CC(=NO)C(C)=NN=C1NC(=O)C(=Cc2ccc(O)cc2)S1 [Compound 10] | 10.6 | 12.4 | 4.9 µM | 3.9 | 15.4 µM | 61.2 µM | 5.7 µM | – | – | – | – | –
CC(=N/O)/C(C)=N\N=C1/NC(=O)/C(=C/c2ccc(O)c(O)c2)S1 [Compound 13] | >18.1 | >8.0 | 19.8 µM | >0.6 | – | > 160 µM | 8.8 µM | – | – | – | – | –
CC(=NO)C(C)=NN=C1NC(=O)/C(=C/c2ccccc2O)S1 [Compound 9] | >25.9 | >164.9 | – | >14.9 | – | – | – | 6.1 µM | 0.9 µM | 10.7 µM | > 160 µM | –
CC(=N/O)/C(C)=N\N=C1/NC(=O)/C(=C/c2ccc(Cl)cc2)S1 [Compound 14] | >1.1 | – | – | – | – | > 160 µM | 142 µM | – | – | – | – | –
COc1cc(C2=NNC(c3ccc(Cl)cc3)C2)ccc1O (stereo not shown) [Compound 2] | 73.3 | 18.6 | 6.6 µM | 16.4 | 7.5 µM | 123 µM | – | – | – | – | – | –
CC(=N/O)/C(C)=N\N=C1/NC(=O)/C(=C/c2ccc(C#N)cc2)S1 [Compound 11] | 14.5 | 1.8 | – | 2.3 | – | – | – | 3.6 µM | 29.5 µM | 22.5 µM | 53.2 µM | –
COc1ccc(C2CC(c3ccc(O)c(OC)c3)=NN2)cc1 (stereo not shown) [Compound 3] | >8.3 | – | – | – | – | > 160 µM | 18.1 µM | – | – | – | – | –
CC(C)(C)n1nc(-c2c[nH]c3ccccc23)c(C#N)c1-c1ccc(Br)cc1 [Compound 8] | >7.6 | – | – | – | – | > 160 µM | 21 µM | – | – | – | – | –
